In patent US7001910B1, “Thiazolidinedione derivatives as antidiabetic agents” (Vita-Invest S.A., priority 1999, dated 2006):

Legend:
[1] = system: genetically diabetic C57 BL male db/db mice; test: Plasma glucose reduction in genetically diabetic db/db mice after 5 days of oral treatment; assay type: in vivo; conditions: Mus musculus, 120 h, 5 consecutive days, plasma glucose reduction vs basal level before treatment; for inhibition in vivo at 1 mg/kg: 1 mg/kg p.o.; for inhibition in vivo at 10 mg/kg: 10 mg/kg p.o.; for inhibition in vivo at 5 mg/kg: 5 mg/kg p.o.
Protocol: The pharmacological effect of the compounds is assessed in genetically diabetic C57 BL male db/db 9–11 weeks old mice, as well as in control C57 BL db/+ animals of the same strain and age. […] In each experimental group, 8–10 animals are used, which are treated with different doses of the compounds: 1 mg/kg, 5 mg/kg, 10 mg/kg or 25 mg/kg orally during 5 consecutive days.
In the day 0 of the experiment, blood samples are collected in heparinized tubes by punction of the retroorbital vein. Plasma is separated and the levels of basal glucose and insulin are quantified.
After concluding the treatments, blood samples of each animal are collected again and plasmatic post-treatment glucose and insulin levels are quantified.
The determination of glucose is carried out by means of an enzymatic method that converts glucose into glucose 6-phosphate, a reaction coupled with the reduction of nicotinamide-dinucleotide phosphate (NADP) to NADPH by the action of glucose-6-P-dehydrogenase. The NADPH reduces the iodonitrotetrazolium, which is quantified spectrophotometrically. The absorbency at 520 nm is proportional to the concentration of glucose, ref: Randox GI, 2623 (Bergmeyer H. U., Bernt E., Schmidt F. H., Stork H. In Methods of Enzymatic Analysis, Academic Press: London and New York 1974, p. 1196).
The results are expressed as the reduction percent with regard to the basal levels determined before the beginning of the treatment.

[2] = system: genetically diabetic C57 BL male db/db mice; test: as above; assay type: in vivo; conditions: Mus musculus, 120 h, 100 mg/kg p.o., 5 consecutive days, plasma glucose reduction vs basal level before treatment

Compound `CN(CCOc1ccc(CC2SC(=O)NC2=O)cc1)c1cc(Cl)nc(N)n1` (centres unmarked) [Example 3, 5-(4-{2-[(2-amino-6-chloropyrimidin-4-yl)-methyl-amino]-ethoxy}-benzyl)-thiazolidine-2,4-dione] has an inhibition in vivo at 1 mg/kg [1] of 47%.
Work on `COc1cc(N(C)CCOc2ccc(CC3SC(=O)NC3=O)cc2)nc(OC)n1` (centres unmarked) [Example 4, 5-(4-{2-{(2,6-Dimethoxypyrimidin-4-yl)-methyl-amino]-ethoxy}-benzyl)-thiazolidine-2,4-dione] yielded an inhibition in vivo at 1 mg/kg [1] of 53%.
With `CN(CCOc1ccc(CC2SC(=O)NC2=O)cc1)c1ncnc2nc[nH]c12` (centres unmarked) [Example 7, 5-(4-{2-[Methyl-(7H-purin-6-yl)-amino]-ethoxy}-benzyl)-thiazolidine-2,4-dione] the inhibition in vivo at 10 mg/kg [1] was 47%.
Work on `CN(CCOc1ccc(CC2SC(=O)NC2=O)cc1)c1ncnc2c1ncn2C1OC(CO)C(O)C1O` (centres unmarked) [Example 11] yielded an inhibition in vivo at 10 mg/kg [1] of 30%.
With `CN(CCOc1ccc(CC2SC(=O)NC2=O)cc1)c1ncnc2c1ncn2C` (centres unmarked) [Example 12, 5-(4-{2-[Methyl-(9-methyl-9H-purin-6-yl)-amino]-ethoxy}-benzyl)-thiazolidine-2,4-dione] the inhibition in vivo at 10 mg/kg [1] was 25%.
`CN(CCOc1ccc(CC2SC(=O)NC2=O)cc1)c1cc(Cl)ncn1` (centres unmarked) [Example 14, 5-(4-{2-[(6-chloropyrimidin-4-yl)-methylamino]-ethoxy}-benzyl)-thiazolidine-2,4-dione] gave an inhibition in vivo at 1 mg/kg [1] of 51%.
Compound `COc1cc(N(C)CCOc2ccc(CC3SC(=O)NC3=O)cc2)ncn1` (centres unmarked) [Example 17, 5-(4-{2-[(6-Methoxypyrimidin-4-yl)-methylamino]-ethoxy}-benzyl)-thiazolidine-2,4-dione] has an inhibition in vivo at 1 mg/kg [1] of 48%.
Compound `CN(CCOc1ccc(CC2SC(=O)NC2=O)cc1)c1ccncn1` (centres unmarked) [Example 20, 5-{4-[2-(Methylpyrimidin-4-yl-amino)ethoxy]benzyl}-thiazolidine-2,4-dione] has an inhibition in vivo at 5 mg/kg [1] of 21%.
For `CN(C)c1cc(N(C)CCOc2ccc(CC3SC(=O)NC3=O)cc2)ncn1` (centres unmarked) [Example 21, 5-(4-{2-[(6-Dimethylaminopyrimidin-4-yl)-methylamino]-ethoxy}-benzyl)-thiazolidine-2,4-dione], the inhibition in vivo at 25 mg/kg ([1]; 25 mg/kg p.o.) was 36%.
Compound `CN(CCOc1ccc(CC2SC(=O)NC2=O)cc1)c1cc(O)ncn1` (centres unmarked) [Example 22, 5-(4-{2-[(6-Hydroxypyrimidin-4-yl)-methylamino]-ethoxy}-benzyl)-thiazolidine-2,4-dione] has an inhibition in vivo at 5 mg/kg [1] of 22%.
`Cc1c(C)c2c(c(C)c1O)CCC(C)(COc1ccc(CC3SC(=O)NC3=O)cc1)O2` (centres unmarked) [Troglitazone] was tested, and the inhibition in vivo at 100 mg/kg [2] was 38%.
